{"source": "patent US20250302767A1", "about": "“TREATMENT OF CANCER AND AUTOIMMUNE DISORDERS USING NANO POLYMERS OF HISTONE DEACETYLASE INHIBITORS” (University of Virginia Patent Foundation, priority 2021, published 2025)", "system": "cancer cell lines (SUP-T1, FEPD, H9, HH, SUP-M2, NKL, TL-1, FM3-29)", "assay": "Cell viability assay, summary across all cancer cell lines tested", "assay_type": "cell-based, human", "experimental": "Cell Viability Assay. For cell viability, cell lines were plated at the appropriate cell densities (SUP-T1, HH, NKL and TL-1 at 100,000 cells/ml/well and H9, FEPD SUP-M2 and FM3-29 at 50,000 cells/ml/well) in a 48-well plate. […] Luminescence was normalized to untreated control, which was defined as 100% viability.", "note": "Like-named read-outs stand apart in the source and are kept apart here."}
{"smiles": "C/C=C1\\NC(=O)[C@H]2CSSCC/C=C/[C@H](CC(=O)N[C@H](C(C)C)C(=O)N2)OC(=O)[C@H](C(C)C)NC1=O", "note": "[Romidepsin, (1S,4S,7Z,10S,16E,21R)-7-Ethylidene-4,21-diisopropyl-2-oxa-12,13-dithia-5,8,20,23-tetrazabicyclo[8.7.6]tricos-16-ene-3,6,9,19,22-pentone]", "values": [{"measurement": "IC50", "setting": "Homo sapiens, 60 h, read-out: Avg. IC50 across the cancer cell lines, 60 hours, 8 cancer cell lines, b235 with +/- spread", "result": 1.23, "unit": "nM"}, {"measurement": "IC50", "setting": "Homo sapiens, 60 h, read-out: IC50 range across the cancer cell lines, 60 hours, 8 cancer cell lines", "result": "0.6 to 1.9", "unit": "nM"}, {"measurement": "IC50", "setting": "read-out: Avg. IC50 across the cancer cell lines, 60 hours, 8 cancer cell lines, b235 with +/- spread", "result": 1.23, "unit": "nM"}]}
